The target in assay [1] is T1, Transient receptor potential cation channel subfamily V member 1 (Rattus norvegicus, UniProt O35433). The assay is described as follows: Inhibition of calcium influx evoked by capsaicin in rat TRPV1 expressing cells by fluorescence assay. The format is functional, cell-based.
Assay [2] has as its target T2, Transient receptor potential cation channel subfamily V member 1 (Homo sapiens, UniProt Q8NER1). The assay is described as follows: Inhibition of low pH activation of human TRPV1. The format is functional.
Assay [3] has as its target T1, Transient receptor potential cation channel subfamily V member 1. The assay is described as follows: Inhibition of low pH activation of rat TRPV1. The format is functional.
For assay [4], the target named is T2, Transient receptor potential cation channel subfamily V member 1. The assay is described as follows: Inhibition of calcium influx evoked by capsaicin in human TRPV1 expressing cells by fluorescence assay. The class given is functional.

T2 sequence (Q8NER1 whole entry): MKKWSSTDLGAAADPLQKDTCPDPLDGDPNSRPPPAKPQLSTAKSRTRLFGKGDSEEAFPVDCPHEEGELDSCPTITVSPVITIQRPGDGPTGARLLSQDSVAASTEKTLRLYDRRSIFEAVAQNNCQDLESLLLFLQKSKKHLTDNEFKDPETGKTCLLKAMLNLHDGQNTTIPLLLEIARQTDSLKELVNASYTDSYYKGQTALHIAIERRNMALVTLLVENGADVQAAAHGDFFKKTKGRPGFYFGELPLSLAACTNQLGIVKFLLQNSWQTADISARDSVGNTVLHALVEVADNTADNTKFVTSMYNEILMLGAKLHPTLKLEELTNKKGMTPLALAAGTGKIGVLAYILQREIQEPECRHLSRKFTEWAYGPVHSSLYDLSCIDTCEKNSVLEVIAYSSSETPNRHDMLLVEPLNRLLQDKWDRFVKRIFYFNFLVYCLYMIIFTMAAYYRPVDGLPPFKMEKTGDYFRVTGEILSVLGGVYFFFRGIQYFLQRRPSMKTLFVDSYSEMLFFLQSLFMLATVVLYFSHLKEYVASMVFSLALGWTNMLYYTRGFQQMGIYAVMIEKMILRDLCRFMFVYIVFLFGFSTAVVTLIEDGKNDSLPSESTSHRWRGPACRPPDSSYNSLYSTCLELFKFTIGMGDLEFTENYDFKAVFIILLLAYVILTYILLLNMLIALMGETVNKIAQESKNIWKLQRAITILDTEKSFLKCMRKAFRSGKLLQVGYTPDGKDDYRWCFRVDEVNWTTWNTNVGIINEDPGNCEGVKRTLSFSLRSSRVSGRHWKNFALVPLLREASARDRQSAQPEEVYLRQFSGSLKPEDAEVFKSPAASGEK
T1 sequence (O35433 whole entry): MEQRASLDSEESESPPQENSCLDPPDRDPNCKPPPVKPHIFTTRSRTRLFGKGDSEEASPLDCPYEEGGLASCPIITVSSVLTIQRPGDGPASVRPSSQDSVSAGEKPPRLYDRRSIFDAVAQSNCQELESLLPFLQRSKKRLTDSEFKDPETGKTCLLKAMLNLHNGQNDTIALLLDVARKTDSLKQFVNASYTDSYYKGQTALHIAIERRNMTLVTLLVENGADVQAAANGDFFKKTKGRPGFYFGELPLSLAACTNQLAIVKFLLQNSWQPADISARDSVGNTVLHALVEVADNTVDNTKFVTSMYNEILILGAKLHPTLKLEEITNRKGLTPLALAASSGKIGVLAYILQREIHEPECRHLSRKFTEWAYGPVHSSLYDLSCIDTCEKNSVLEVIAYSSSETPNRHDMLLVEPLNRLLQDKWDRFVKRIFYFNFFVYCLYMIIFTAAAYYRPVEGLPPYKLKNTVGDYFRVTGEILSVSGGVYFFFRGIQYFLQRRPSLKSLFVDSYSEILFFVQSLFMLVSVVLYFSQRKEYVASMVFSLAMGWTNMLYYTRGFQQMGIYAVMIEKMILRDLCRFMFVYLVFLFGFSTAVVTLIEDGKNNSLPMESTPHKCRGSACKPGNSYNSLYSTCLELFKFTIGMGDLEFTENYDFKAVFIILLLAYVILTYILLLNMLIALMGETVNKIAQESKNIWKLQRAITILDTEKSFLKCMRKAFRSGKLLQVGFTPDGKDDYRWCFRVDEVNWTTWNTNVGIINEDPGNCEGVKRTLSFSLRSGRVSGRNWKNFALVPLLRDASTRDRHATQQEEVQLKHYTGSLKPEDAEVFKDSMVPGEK

Take `CC(C)(C)c1nc2[nH]c(=S)[nH]c(=O)c2cc1-c1ccccc1`: the IC50 (usually the midpoint of a concentration-inhibition curve) in assay [1] is 90 nM; in assay [2] it was 49 nM; in assay [3] it was 25 nM; in assay [4], 100 nM.

As to `COc1cc(Cl)cc(-c2cc3c(O)nc(C)nc3cc2C(C)C)c1`, in assay [4], the half-inhibitory concentration (IC50) was found to be 100 nM.

Consider `Cc1nc2cc(C(C)C)c(-c3ccc(Cl)c(F)c3)cc2c(=O)[nH]1`, for which the IC50 in assay [4] amounted to 23 nM.

Turning to `Cc1nc(O)c2cc(-c3ccc(Cl)c(OCC(=O)O)c3)c(C(C)C)cc2n1`, the IC50 in assay [4] is over 1000 nM.

Regarding `Cc1nc(O)c2cc(-c3ccc4c(c3)OCO4)c(C(C)C)cc2n1`, the IC50 in assay [4] was determined as 31 nM.

For the compound `COCCOc1cc(-c2cc3c(=O)[nH]c(C)nc3cc2C(C)C)ccc1Cl`, the concentration for half-maximal inhibition (IC50) in assay [4] was 216 nM.

The values above are taken from ChEMBL document CHEMBL1147725, “Identification and biological characterization of 6-aryl-7-isopropylquinazolinones as novel TRPV1 antagonists that are effective in models of chronic pain” (J Med Chem, 2006).
